Source: patent EP1658776A1, “Method for producing live food water organisms in the presence of an antibacterial” (priority 2004, dated 2006)
Marks after values point to notes of the source that are not given here.

Legend:
[1] = tested on: marine heterotrophic bacterial population; assay: Total bacterial count on Marine agar in hatching medium (Example 1); format: cell-based; conditions: for MA (cfu/ml): 24h incubation
Protocol: (§1) 1000 g commercially available dry cysts from Great Salt Lake (GSL-strain) were sprayed with 20 ml solution to which 2.43g or 2.02g AgNO3 is added and another 1000 g cysts were sprayed with 20 ml to which 14.20g or 11.81g thiosulphate (Na2S2O3.5(H2O)) is added (in a ratio of 4 mol thiosulphate to 1 mol AgNO3) to obtain respectively 1.50 or 1.25 mg Ag/l in the hatching medium, after incubation of 2g treated cysts therein. The cysts were gently mixed for 15-30 minutes while spraying. Both fractions were mixed together in a ratio of (1:1). The cysts were vacuum packed and stored at different temperatures (4°C, 20°C and 30°C). Cysts from the same batch were kept as a control. After 4 weeks they were incubated at 2g (treated) cysts /l, following standard procedures, i.e.: salinity of 25 g/I, temperature of 30°C. Continuous illumination and air bubbling was provided. After 24 hours of incubation, samples of the hatching medium were taken for determination of the total count on Marine agar (MA) and Vibrio sp. on TCBS (specific growth medium for Vibrio sp.). The hatching percentage (percentage of cysts that hatch on the total of full cysts) of the cysts was calculated. Tabel 1: Hatching percentage (HP) of cysts, number of colony forming units (cfu) per ml of hatching medium on MA and on TCBS after 24h incubation of Artemia cysts of control cysts and cysts with different amounts of AgNO3 (expressed as mg Ag/l hatching medium). Each value is the average of three counts.

Vibrio sp. [2] = assay: Vibrio count on TCBS in hatching medium (Example 1); format: cell-based; conditions: for TCBS (cfu/ml): 24h incubation
Protocol: as §1

Vibrio sp. [3] = assay: Vibrio reduction by silver combined with berberine during hatching (Example 4, Figure 2); format: cell-based
Protocol: GSL-cysts were incubated at 2g cysts /l, following standard procedures, i.e.: salinity of 25 g/l, temperature of 30°C. Continuous illumination and air bubbling was provided. Silver nitrate, thiosulphate and berberine were added in different concentrations to the hatching medium. After 24 hours, the hatching percentage was calculated and samples of the hatching medium were taken for determination of Vibrio sp. on TCBS.

gram-positive bacteria = conditions: against gram-positive bacteria; cited from earlier work
Artemia cysts [4] = assay: Hatching percentage of Artemia cysts sprayed with silver nitrate / thiosulphate (Example 1); format: in vivo, Artemia (GSL-strain); conditions: 24h incubation
Protocol: as §1

Artemia cysts [5] = assay: Hatching percentage of treated cysts after storage at different temperatures (Example 2, Figures 1a/1b); format: in vivo, Artemia (GSL-strain); conditions: AgNO3 (and thiosulphate) applied on cysts; 1 to 8 weeks of storage at 20° C or more
Protocol: 1000 g commercially available dry cysts (GSL-strain) were sprayed with a 20 ml solution to which 2.43g AgNO3 and another 1000g cysts were sprayed 20 ml solution to which 14.20g thiosulphate (Na2S2O3.5(H2O)) was added. The cysts were gently mixed for 15 - 30 minutes while spraying. Both fractions of cysts were mixed together in a ratio of [1:1]. The cysts were vacuum packed and stored at different temperatures (4°C, 20°C and 30°C) for 1 to 8 weeks. At different time intervals (1 week, 2 weeks, 4 weeks and 8 weeks) they were incubated at 2g (treated) cysts /l following standard procedures, i.e.: salinity of 25 g/l, temperature of 30°C. Continuous illumination and air bubbling was provided. After 24 hours, the hatching percentage (percentage of cysts that hatch on the total of full cysts) was calculated. These values were compared with a former batch of cysts on which 1.4 mg/l of the bactericidal isothiazolin derivative comprising 5-chloro-2-methyl-4-isothiazolin-3-one and 2-methyl-4-isothiazolin-3-one was applied.

Artemia = assay: Hatching percentage with silver in hatching medium, with or without thiosulphate (Example 3); format: in vivo, Artemia (GSL-cysts); conditions: for Hatching percentage (%) Without thiosulphate / Hatching percentage (%) With thiosulphate: 24 hours; for Hatching percentage (%) With thiosulphate: silver nitrate:thiosulphate 1:4
Protocol: (§2) GSL-cysts were incubated at 2g cysts /l, following standard procedures, i.e.: salinity of 25 g/l, temperature of 30°C. Continuous illumination and air bubbling was provided. Different concentrations of silver nitrate were added to the hatching medium. Thiosulphate was added to compare its effect on the hatching of Artemia and reduction of Vibrio sp. When thiosulphate was added, the molecular ratio of silver nitrate to thiosulphate was (1:4). After 24 hours, samples of the hatching medium were taken for determination of Vibrio sp. on TCBS and hatching percentage was calculated. Table 2: Effect of thiosulphate in combination with Ag, on hatching percentage of Artemia and on the amount of Vibrio species in the hatching medium

Vibrio species = assay: Vibrio counts on TCBS in hatching medium, silver with or without thiosulphate (Example 3); format: cell-based, Vibrio sp.; conditions: 24 hours; for Vibrio counts on TCBS (cfu/ml) With thiosulphate: silver nitrate:thiosulphate 1:4
Protocol: as §2

Vibrio sp. [6] = assay: Vibrio count on TCBS in enrichment medium (Example 5); format: cell-based; conditions: after 24 hours enrichment; compared to the non treated culture medium
Protocol: Artemia nauplii Instar I were harvested from the hatching tank, rinsed and incubated in cylindrical conical tanks with 90L water with a salinity of 35 g/l and a temperature of 28°C. The pH was controlled at 7.5. Stocking density of the nauplii was 300 nauplii / ml. The enrichment product 'Easy DHA Selco' which is a commercially available Seleco™-type enrichment product was added at the start of the enrichment at 600 mg/l. The dose of the silver (silver thiosulphate) in three of the six enrichment tanks was 1.5 mg Ag /l. In the three other tanks, Ag was not added. Samples of Artemia nauplii to analyse the levels of HUFA were taken at the end of the enrichment, thus 24 hours after adding the enrichment diets. At the same time, samples of the enrichment medium were taken for determination of Vibrio sp. on TCBS. Table 3: Highly unsaturated fatty acid levels (mg/g DW) of Artemia nauplli Instar II and bacterial concentrations (cfu/ml) on marine agar and TCBS of the enrichment medium after 24 hours enrichment with and without silver.

pathogenic Vibrio sp. = assay: Vibrio in shrimp tanks fed Artemia nauplii enriched in the presence of Ag; format: in vivo; conditions: Artemia nauplii enriched in the presence of Ag fed for 14 days to larval shrimp; versus control enrichment
mussel = conditions: natural seawater; cited from earlier work
oyster embryos = conditions: natural seawater; cited from earlier work
crab larvae = conditions: natural seawater; cited from earlier work
[7] = after 24 hours, summary of Table 1
[8] = 1.25 mg/l Ag (AgNO3 + thiosulphate on cysts), storage 20°C
[9] = 1.25 mg/l Ag (AgNO3 + thiosulphate on cysts), storage 30°C
[10] = 1.50 mg/l Ag (AgNO3 + thiosulphate on cysts), storage 4°C
[11] = 1.50 mg/l Ag (AgNO3 + thiosulphate on cysts), storage 20°C
[12] = 1.50 mg/l Ag (AgNO3 + thiosulphate on cysts), storage 30°C
[13] = 1.25 mg/l Ag (AgNO3 + thiosulphate on cysts), storage 4°C

silver thiosulphate [silver nitrate and thiosulphate]
total counts on Marine Agar [1, 7]: not affected | TCBS (Vibrio sp.) in the medium with treated cysts (Vibrio sp. [2]; [7]): < 300 cfu/ml

COc1ccc2cc3[n+](cc2c1OC)CCc1cc2c(cc1-3)OCO2 [berberine, reference compound]
reduction in Vibrio species (Vibrio sp. [3]; berberine 0.1 mg/l to 2.5 mg/l added together with silver 0.1 mg Ag per liter): some reduction in Vibrio species is observed | inhibitory activity (gram-positive bacteria): 50 to 400 mg/L

O=[N+]([O-])[O-].[Ag+] [Ag, silver nitrate]
HP (%) (Artemia cysts [4]; [8]): 80.3% | HP (%) (Artemia cysts [4]; [9]): 82.6% | HP (%) (Artemia cysts [4]; 1.25 mg/l Ag in hatching medium (AgNO3 + thiosulphate 1:4 mol on cysts), cysts stored 4 weeks at 4°C): 84.5% | HP (%) (Artemia cysts [4]; [10]): 81.4% | HP (%) (Artemia cysts [4]; [11]): 82.2% | HP (%) (Artemia cysts [4]; [12]): 81.2% | MA (cfu/ml) [1, 13]: 2.69 x 10^7 cfu/ml | MA (cfu/ml) [1, 8]: 1.29 x 10^7 cfu/ml | MA (cfu/ml) [1, 9]: 3.17 x 10^7 cfu/ml | MA (cfu/ml) [1, 10]: 1.20 x 10^7 cfu/ml | MA (cfu/ml) [1, 11]: 8.07 x 10^6 cfu/ml | MA (cfu/ml) [1, 12]: 6.55 x 10^6 cfu/ml | TCBS (cfu/ml) (Vibrio sp. [2]; [13]): <3.00 x 10^2 cfu/ml | TCBS (cfu/ml) (Vibrio sp. [2]; [8]): 5.66 x 10^3 cfu/ml | TCBS (cfu/ml) (Vibrio sp. [2]; [9]): <3.00 x 10^2 cfu/ml | TCBS (cfu/ml) (Vibrio sp. [2]; [10]): <3.00 x 10^2 cfu/ml | TCBS (cfu/ml) (Vibrio sp. [2]; [11]): <3.00 x 10^2 cfu/ml | TCBS (cfu/ml) (Vibrio sp. [2]; [12]): <3.00 x 10^2 cfu/ml | Hatching percentage (Artemia cysts [5]): did not decrease | Hatching percentage (%) Without thiosulphate (Artemia; Ag 0.1 mg/l as silver nitrate): 77.1% | Hatching percentage (%) With thiosulphate (Artemia; Ag 0.1 mg/l): 79.9% | Hatching percentage (%) Without thiosulphate (Artemia; Ag 0.25 mg/l as silver nitrate): 76.6% | Hatching percentage (%) With thiosulphate (Artemia; Ag 0.25 mg/l): 78.6% | Hatching percentage (%) Without thiosulphate (Artemia; Ag 0.5 mg/l as silver nitrate): 78.3% | Hatching percentage (%) With thiosulphate (Artemia; Ag 0.5 mg/l): 76.0% | Hatching percentage (%) Without thiosulphate (Artemia; Ag 0.75 mg/l as silver nitrate): 73.9% | Hatching percentage (%) Without thiosulphate (Artemia; Ag 1.0 mg/l as silver nitrate): 72.5% | Hatching percentage (%) With thiosulphate (Artemia; Ag 1.0 mg/l): 74.4% | Hatching percentage (%) Without thiosulphate (Artemia; Ag 1.25 mg/l as silver nitrate): 75.5% | Hatching percentage (%) Without thiosulphate (Artemia; Ag 1.5 mg/l as silver nitrate): 71.1% | Hatching percentage (%) With thiosulphate (Artemia; Ag 1.5 mg/l): 76.3% | Hatching percentage (%) Without thiosulphate (Artemia; Ag 1.75 mg/l as silver nitrate, hatching is delayed (maximal HP not reached after 24 h)): 69.9* % | Hatching percentage (%) Without thiosulphate (Artemia; Ag 2.0 mg/l as silver nitrate, hatching is delayed (maximal HP not reached after 24 h)): 65.0* % | Hatching percentage (%) With thiosulphate (Artemia; Ag 2.0 mg/l): 74.3% | Hatching percentage (%) Without thiosulphate (Artemia; Ag 2.5 mg/l as silver nitrate, hatching is delayed (maximal HP not reached after 24 h)): 50.0* % | Hatching percentage (%) With thiosulphate (Artemia; Ag 2.5 mg/l): 75.6% | Hatching percentage (%) Without thiosulphate (Artemia; Ag 5.0 mg/l as silver nitrate, hatching is delayed (maximal HP not reached after 24 h)): 28.0* % | Hatching percentage (%) With thiosulphate (Artemia; Ag 5.0 mg/l): 77.6% | Hatching percentage (%) Without thiosulphate (Artemia; Ag 10.0 mg/l as silver nitrate): 0% | Hatching percentage (%) With thiosulphate (Artemia; Ag 10.0 mg/l): 77.1% | hatching of the Artemia naupllii (Artemia; more than 2 mg/l till at least 10 mg/l Ag, thiosulphate 4 mol per 1 mol AgNO3): still not affected | hatching of Artemia nauplii (Artemia; very high concentrations (> 10 mg/l), without thiosulphate): do not hatch at all | Vibrio counts on TCBS (cfu/ml) Without thiosulphate (Vibrio species; Ag 0.1 mg/l as silver nitrate): 7.96 x 10^6 cfu/ml | Vibrio counts on TCBS (cfu/ml) With thiosulphate (Vibrio species; Ag 0.1 mg/l): 1.47 x 10^5 cfu/ml | Vibrio counts on TCBS (cfu/ml) Without thiosulphate (Vibrio species; Ag 0.25 mg/l as silver nitrate): 1.79 x 10^5 cfu/ml | Vibrio counts on TCBS (cfu/ml) With thiosulphate (Vibrio species; Ag 0.25 mg/l): 1.70 x 10^4 cfu/ml | Vibrio counts on TCBS (cfu/ml) Without thiosulphate (Vibrio species; Ag 0.5 mg/l as silver nitrate): 3.48 x 10^4 cfu/ml | Vibrio counts on TCBS (cfu/ml) With thiosulphate (Vibrio species; Ag 0.5 mg/l): <3.00 x 10^2 cfu/ml | Vibrio counts on TCBS (cfu/ml) Without thiosulphate (Vibrio species; Ag 0.75 mg/l as silver nitrate): 6.23 x 10^2 cfu/ml | Vibrio counts on TCBS (cfu/ml) Without thiosulphate (Vibrio species; Ag 1.0 mg/l as silver nitrate): 4.80 x 10^2 cfu/ml | Vibrio counts on TCBS (cfu/ml) With thiosulphate (Vibrio species; Ag 1.0 mg/l): <3.00 x 10^2 cfu/ml | Vibrio counts on TCBS (cfu/ml) Without thiosulphate (Vibrio species; Ag 1.25 mg/l as silver nitrate): <3.00 x 10^2 cfu/ml | Vibrio counts on TCBS (cfu/ml) Without thiosulphate (Vibrio species; Ag 1.5 mg/l as silver nitrate): <3.00 x 10^2 cfu/ml | Vibrio counts on TCBS (cfu/ml) With thiosulphate (Vibrio species; Ag 1.5 mg/l): <3.00 x 10^2 cfu/ml | Vibrio counts on TCBS (cfu/ml) Without thiosulphate (Vibrio species; Ag 1.75 mg/l as silver nitrate): <3.00 x 10^2 cfu/ml | Vibrio counts on TCBS (cfu/ml) Without thiosulphate (Vibrio species; Ag 2.0 mg/l as silver nitrate): <3.00 x 10^2 cfu/ml | Vibrio counts on TCBS (cfu/ml) With thiosulphate (Vibrio species; Ag 2.0 mg/l): <3.00 x 10^2 cfu/ml | Vibrio counts on TCBS (cfu/ml) With thiosulphate (Vibrio species; Ag 2.5 mg/l): <3.00 x 10^2 cfu/ml | Vibrio counts on TCBS (cfu/ml) With thiosulphate (Vibrio species; Ag 5.0 mg/l): <3.00 x 10^2 cfu/ml | Vibrio counts on TCBS (cfu/ml) With thiosulphate (Vibrio species; Ag 10.0 mg/l): <3.00 x 10^2 cfu/ml | decrease of Vibrio sp. in the hatching medium (Vibrio sp. [3]; 0.1 mg Ag per liter, with or without thiosulphate, no berberine): usually not sufficient to decrease the Vibrio sp. | Vibrio count on TCBS (Vibrio sp. [6]): significantly less | pathogenic Vibrio sp. in the shrimp tanks (pathogenic Vibrio sp.): a reduction in pathogenic Vibrio sp. was noticed | toxicity levels (EC50) (mussel): 0.014 mg Ag/l | toxicity levels (EC50) (oyster embryos): 0.022 mg Ag/l | toxicity levels (EC50) (crab larvae): 0.055 mg Ag/l
